Experimental data published in patent US20170131285A1, “METHODS AND COMPOSITIONS FOR DIAGNOSING, MONITORING AND TREATING CANCER” (INSERM (Institut National de la Sante et de la Recherche …, priority 2014, published 2017).
Where no end group is shown, it is not given here.

Key:
primary MDSC = assay: Primary MDSC proliferation (Cellometer-mini); type: cell-based, mouse; conditions: exosomes from B16F10, A8 16 μM, 24 hours
Description: FIG. 9: TDE and A8 effects on MSC2 and MDSC proliferation. A) Dynamic monitoring of in vitro MSC2 cell proliferation using the RTCA-DP system (Real-Time Cell Analyzer). MSC2 were incubated or not for 11 h with exosomes (from B16F10) in the absence or presence of A8 (16 μM and 32 μM). Cell index values were measured every 30 seconds (n=3). B) MSC2 were incubated or not for 24 h with exosomes (from B16F10) in the absence or presence of A8 (16 μM). Then, cells were labelled with BrdU and incorporation was determined by flow cytometry (n=3). C) MDSC were treated with exosomes (from B16F10) in the absence or presence of A8 ([…]) for 24 hours and then analyzed for proliferation by Cellometer-mini. *p<0.05.
MSC2 cells proliferation were analyzed by to different techniques. First, MSC2 (1·10^4) were seeded onto 16-well plates with medium containing 10% FBS and incubated for 34 hours. […] Into each well of the micro-electronic sensor transendothelial electric resistance (TER) was measured by xCELLigence real time cell analyzer DP system (Roche). TER was measured every 30 s and then normalized to the initial value. […] MDSC proliferation was analyzed by cell counting. MDSC cells (1·10^6) from spleen of naive mice (see MDSC isolation section) were treated or not with exosomes (from B16F10) in the absence or presence of A8 (16 μM) for 24 hours and then analyzed for viability by Cellometer-mini (Ozyme).

human HSP70/HSP40 = target: T1, human HSP70/HSP40 (Homo sapiens, UniProt P0DMV8); assay: Refolding luciferase assay (HSP70 chaperone activity); type: biochemical; conditions: A8 5 μM to 50 μM, 1 hour at 25° C., purified recombinant proteins
T1 construct: purchased StressGen (EnzoLife)
Description: FIG. 3: A8 blocks HSP70/TLR2 association. (A) Immunoprecipitation of TLR2 in the presence of increasing concentrations of A8 (from 0.3 μM to 1.8 μM) was followed by HSP70 immunoblotting. IP control, no relevant IgG antibody. (B) Denatured luciferase (D) was incubated in the absence or presence of human HSP70 and, when indicated, increasing concentrations of A8 (C1=5 μM; C2=15 μM; C3=25 μM and C4=50 μM) for 1 hour at 25° C. Following incubation, the luciferase substrate D-luciferin was added and within 10 minutes the total light units emitted were collected for 10 seconds at 560 nm using a Wallac (Victor 3) spectrophotometer. *, p<0.05. (C) Biolayer interferometry to determine association and dissociation curves of HSP70 (concentration range from 2.5 μM to 156 nM) with biotinylated TRL2 immobilized on streptavidin sensor tips. (D) Association and dissociation curves of HSP70 (concentration range from 50 nM to 1.28 nM) with biotinylated A8 immobilized on streptavidin sensor tips. Curves in C and D represent mean values of triplicate measurements for each concentration. […]

T1 sequence (P0DMV8 whole entry): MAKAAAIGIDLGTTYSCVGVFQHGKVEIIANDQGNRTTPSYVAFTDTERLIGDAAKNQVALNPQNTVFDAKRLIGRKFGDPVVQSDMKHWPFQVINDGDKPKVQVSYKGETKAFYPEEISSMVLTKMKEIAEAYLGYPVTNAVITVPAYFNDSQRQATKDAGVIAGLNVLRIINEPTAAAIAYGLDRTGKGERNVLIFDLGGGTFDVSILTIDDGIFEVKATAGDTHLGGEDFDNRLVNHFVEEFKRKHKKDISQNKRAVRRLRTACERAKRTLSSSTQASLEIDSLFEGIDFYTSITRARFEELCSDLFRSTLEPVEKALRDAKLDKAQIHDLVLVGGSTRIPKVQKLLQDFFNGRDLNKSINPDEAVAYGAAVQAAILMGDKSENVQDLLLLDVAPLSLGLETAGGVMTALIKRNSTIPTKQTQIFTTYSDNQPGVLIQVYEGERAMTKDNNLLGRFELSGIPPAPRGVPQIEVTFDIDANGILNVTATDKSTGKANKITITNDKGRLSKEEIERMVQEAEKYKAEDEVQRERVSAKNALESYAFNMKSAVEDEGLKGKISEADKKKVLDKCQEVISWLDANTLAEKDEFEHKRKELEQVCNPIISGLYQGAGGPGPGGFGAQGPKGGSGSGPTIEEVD

SPWPRPTY [Aptamer A8, SPWPRPTY]
TDE-induced proliferation of primary MDSC (primary MDSC): blocked
HSP70 chaperone activity (luciferase refolding) (human HSP70/HSP40): blocked, in a dose-dependent manner
